For experiment [1] the following is noted: cited from earlier work.
In experiment [2] the test system is KG-1. Briefly: cells. The class given is cell-based. The conditions noted are these: Homo sapiens, KG-1, 72 h, read-out: LC50. Here is the method: (§1) The assay was contracted and carried out by WuXi AppTec (Shanghai) Co., Ltd. The tumor cell lines CCRF-CEM, HL-60, KG-1, MOLT-4, K562, MV4-11, THP-1, HEL92.1.7, NCI-H929, RPMI-8226, Jurkat, Z138, RL, HS445, HepG2, MCF-7, Bx-PC-3, HT29, MIA PaCa-2, and SW620 were seeded at cell densities of […] 10^3 cells/well in a 96-well plate the day before drug incubation. Then, the plates were incubated for 72 h with the different concentrations of compound to be tested. After the incubation period, 50 μL of MTS was added and the tumor cells were incubated for 4 h at 37 °C. The data were read and collected by a Spectra Max 340 absorbance microplate reader. The compounds were tested in duplicate with nine serial concentrations (3.16-fold titrations with 198 μM as the highest concentration), and the data were analyzed by XLfit software.

For experiment [3], the system named is HepG2. Nature of the experiment: cells. The class given is cell-based. Conditions: Homo sapiens, 72 h; HepG2, maximum inhibitory effect over concentration range; read-out: MI%. Here is the method:
as §1

Experiment [4] concerns HT29. Briefly: cells. The class given is cell-based. Here is the method:
as §1

Experiment [5] relates to K562. Nature of the experiment: cells. The class given is cell-based. The conditions noted are these: Homo sapiens. As to the method:
as §1

Experiment [6] has as its system MOLT-4. Nature of the experiment: cells. The class given is cell-based. Conditions: Homo sapiens. Here is the method: as §1
The test system of experiment [7] is CCRF-CEM. Nature of the experiment: cells. The class given is cell-based. Conditions: Homo sapiens, 72 h. As to the method: as §1
Experiment [8] has as its system MIA PaCa-2. Briefly: cells. The class given is cell-based. Here is the method:
as §1

Experiment [9] relates to Z138. Briefly: cells. The class given is cell-based. Here is the method:
as §1

Experiment [10] deals with SW620. Nature of the experiment: cells. The class given is cell-based. As to the method:
as §1

Experiment [11] has as its system HS445. Briefly: cells. The class given is cell-based. As to the method: as §1
For experiment [12], the system named is HL-60. Briefly: cells. The class given is cell-based. The conditions noted are these: Homo sapiens. As to the method: as §1
Experiment [13] has as its system RL. Nature of the experiment: cells. The class given is cell-based. Here is the method: as §1
In experiment [14] the test system is BxPC-3. Nature of the experiment: cells. The class given is cell-based. Here is the method:
as §1

Experiment [15] concerns MV4-11. Nature of the experiment: cells. The class given is cell-based. Here is the method:
as §1

In experiment [16] the test system is THP-1. Nature of the experiment: cells. The class given is cell-based. As to the method:
as §1

In experiment [17] the test system is Jurkat. Nature of the experiment: cells. The class given is cell-based. The conditions noted are these: Jurkat. As to the method: as §1
In experiment [18] the test system is NCI-H929. Briefly: cells. The class given is cell-based. As to the method: as §1
Experiment [19] deals with RPMI-8226. Nature of the experiment: cells. The class given is cell-based. Here is the method:
as §1

The subject of experiment [20] is MCF-7. Nature of the experiment: cells. The class given is cell-based. The conditions noted are these: Homo sapiens, MCF7, 72 h. As to the method: as §1
Experiment [21] concerns HEL92.1.7. Briefly: cells. The class given is cell-based. As to the method: as §1
The mark [22] stands for this setting: Homo sapiens, 72 h, read-out: LC50.
The mark [23] stands for this setting: maximum inhibitory effect over concentration range.

Consider `CC(C)OC(=O)[C@H](C)N[P@](=O)(CO[C@H](C)Cn1cnc2c(N)ncnc21)Oc1ccccc1` [TAF, Tenofovir Alafenamide], for which the “Sp isomer fold more active than the Rp isomer” value in experiment [1] is listed as 10 fold.
For the compound `CC(C)OC(=O)[C@H](C)N[P@](=O)(OC[C@H]1O[C@@H](n2ccc(=O)[nH]c2=O)[C@](C)(F)[C@@H]1O)Oc1ccccc1` [sofosbuvir], the “Sp isomer fold more active than the Rp isomer” value in [1] is given as 18 fold.
Regarding `CC(=O)O[C@H]1C(=O)[C@@]2(C)[C@H]([C@H](OC(=O)c3ccccc3)[C@]3(O)C[C@H](OC(=O)[C@H](O)[C@@H](NC(=O)c4ccccc4)c4ccccc4)C(C)=C1C3(C)C)[C@]1(OC(C)=O)CO[C@@H]1C[C@@H]2O` [PTX, paclitaxel, reference compound], the CC50 in experiment [2] turned out to be 70 nM; in experiment [4] (Homo sapiens, HT-29, 72 h, read-out: lC50), 4 nM; in [5] (K562, 72 h, read-out: LC50) it was 8 nM; in [6] (MOLT-4, 72 h, read-out: LC50), 2 nM; in [7] (read-out: LC50), 3 nM; in [8] (Homo sapiens, MIA PaCa-2, 72 h, read-out: LC50) it was 2 nM. Also, the CC50 in experiment [9] (Homo sapiens, Z-138, 72 h, read-out: LC50) was 2 nM; in experiment [10] (Homo sapiens, SW-620, 72 h, read-out: LC50), 20 nM; in experiment [11] (Homo sapiens, Hs 445, 72 h, read-out: LC50), 10 nM; in experiment [12] (HL-60, 72 h, read-out: LC50) it was 4 nM; in experiment [13] (setting [22]), 3 nM; in experiment [14] (Homo sapiens, BXPC-3, 72 h, read-out: LC50), over 500 nM. Moreover, the CC50 worked out at 10 nM in [15] (Homo sapiens, MV4-11, 72 h, read-out: LC50); 30 nM in experiment [16] (Homo sapiens, THP-1, 72 h, read-out: LC50); 5 nM in [17] (setting [22]); 3 nM in [18] (Homo sapiens, NCI-H929, 72 h, read-out: LC50); 3 nM in experiment [19] (Homo sapiens, RPMI-8226, 72 h, read-out: LC50); 3 nM in [20] (read-out: LC50). For the same compound, the CC50 in experiment [21] (Homo sapiens, HEL 92.1.7, 72 h, read-out: LC50) is 20 nM. For the same compound, the Emax worked out at 54% in experiment [3]; 94% in [5] (72 h, K562, maximum inhibitory effect over concentration range, read-out: MI%); 97% in experiment [6] (72 h, MOLT-4, maximum inhibitory effect over concentration range, read-out: MI%); 95% in experiment [7] (maximum inhibitory effect over concentration range, read-out: MI%); 96% in experiment [12] (72 h, HL-60, maximum inhibitory effect over concentration range, read-out: MI%); 79% in experiment [20] (MCF-7, maximum inhibitory effect over concentration range, read-out: MI%). Further, the MI% in [4] (HT29, maximum inhibitory effect over concentration range) came out at 75%; in experiment [8] (MIA PaCa-2, maximum inhibitory effect over concentration range), 87%; in experiment [9] (Z138, maximum inhibitory effect over concentration range), 99%; in experiment [10] (SW620, maximum inhibitory effect over concentration range) it was 96%; in [11] (HS445, maximum inhibitory effect over concentration range), 74%; in experiment [13] (setting [23]) it was 83%. Besides, the MI% in experiment [14] (BxPC-3, maximum inhibitory effect over concentration range) turned out to be 42%; in [15] (MV4-11, maximum inhibitory effect over concentration range) it was 99%; in experiment [16] (THP-1, maximum inhibitory effect over concentration range), 72%; in experiment [17] (setting [23]), 97%; in experiment [18] (NCI-H929, maximum inhibitory effect over concentration range), 82%; in experiment [19] (RPMI-8226, maximum inhibitory effect over concentration range), 91%. Also, the MI% in experiment [21] (HEL92.1.7, maximum inhibitory effect over concentration range) is listed as 83%.

The record behind these values is paper PMC9743095 (Journal of Medicinal Chemistry, 2022).
